The results in this text go back to US20070265208A1, “Association of calpain inhibitors and reactive oxygen species trapping agents” (priority 2000, published 2007).

In experiment [1] the test system is calpain activity in rat glial cells (C6). The experiment can be described thus: In situ calpain activity in rat glial cells C6 stimulated by maitotoxin. Format: cell-based. Particulars: read-out: Inhibition human calpain I, in situ (C6) [IC50 (nM)]; n = 3; maitotoxin 1 nM; 1 h 30 min. As to the method:
Human neuroblastomas SHSY5Y and rat glial cells C6 are seeded at a rate of 50,000 and 25,000 cells respectively per well on 96-well plates in DMEM 10% FBS. The next day, the cells which have adhered are washed 3 times in DMEM medium without serum and 40 mM Hepes. 100 microlitres of product B is placed in the wells. After incubation for 1 hour at 37° C. under an atmosphere of 5% CO2, 10 μl containing the fluorescent substrate of calpain (Suc-Leu-Tyr-AMC) and maitotoxin (Sigma, ref: M-9159), in order to obtain a final concentration in the well of 100 μM and of 1 nM respectively are added.
In order to determine the total activity of the cell enzyme, wells containing no product are added to the plate (100 μL DMSO 100th plus 10 μl of MTX and substrate). The background noise is determined by adding control wells with no MTX. Each concentration of the products (0.3 μM to 200 μM for the SHSY5Y's and 0.01 μM to 100 μM for the C6's) is tested in triplicate. The plates are shaken, the fluorescence is read at 380/460 nm using the Victor at T zero. Incubation takes place for four hours for the SHSY5Y and 1 hour 30 minutes for the C6 cells at 30° C. in darkness.

In the next experiment the target is T1, human calpain I (Homo sapiens, UniProt P07384).
T1 construct: enzyme purified from human erythrocytes; purchased Calbiochem 208713; host or cells: human erythrocytes (native tissue source)
T1 sequence (P07384 1-714): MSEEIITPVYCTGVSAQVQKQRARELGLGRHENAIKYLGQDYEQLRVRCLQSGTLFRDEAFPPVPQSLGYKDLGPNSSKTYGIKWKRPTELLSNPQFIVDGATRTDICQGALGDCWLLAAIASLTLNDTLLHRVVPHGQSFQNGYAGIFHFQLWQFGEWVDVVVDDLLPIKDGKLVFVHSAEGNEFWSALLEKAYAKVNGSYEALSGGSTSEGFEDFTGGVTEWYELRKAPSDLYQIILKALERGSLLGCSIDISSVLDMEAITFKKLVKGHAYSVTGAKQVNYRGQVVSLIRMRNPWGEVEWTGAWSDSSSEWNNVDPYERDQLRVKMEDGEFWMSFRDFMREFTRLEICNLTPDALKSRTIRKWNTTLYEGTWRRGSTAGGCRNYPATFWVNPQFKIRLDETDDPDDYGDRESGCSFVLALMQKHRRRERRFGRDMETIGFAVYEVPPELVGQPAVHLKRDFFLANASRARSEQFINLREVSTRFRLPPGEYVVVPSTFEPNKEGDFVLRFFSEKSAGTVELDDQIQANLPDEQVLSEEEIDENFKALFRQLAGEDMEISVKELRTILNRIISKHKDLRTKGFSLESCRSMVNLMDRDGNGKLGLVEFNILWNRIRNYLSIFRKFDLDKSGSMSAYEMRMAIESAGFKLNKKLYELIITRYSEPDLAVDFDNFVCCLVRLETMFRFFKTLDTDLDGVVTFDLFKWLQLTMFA
T1 sequence (P04632 1-268 partner): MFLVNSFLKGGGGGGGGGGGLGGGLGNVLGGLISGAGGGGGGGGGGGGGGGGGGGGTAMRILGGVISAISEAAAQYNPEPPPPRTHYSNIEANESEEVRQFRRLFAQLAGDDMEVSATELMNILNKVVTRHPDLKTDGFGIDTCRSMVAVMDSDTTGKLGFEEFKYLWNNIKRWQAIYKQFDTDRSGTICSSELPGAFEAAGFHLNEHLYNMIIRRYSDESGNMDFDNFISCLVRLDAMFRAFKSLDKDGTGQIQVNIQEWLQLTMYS
In words: Effects on human calpain I (acellular, Suc-Leu-Tyr-AMC fluorescence). Format: biochemical. As to conditions: enzyme purified from human erythrocytes; 1 h at 25°C; read-out: Inhibition human calpain I, acellular [IC50 (nM)]. The method, then:
The test consists of measuring the activity of the enzyme (enzyme purified from human erythrocytes) which is incubated in a buffer in the presence of a peptide substrate coupled with a fluorochrome (amino-methylcourmarin, AMC) and calcium. The enzyme activated by the calcium, proteolyses the substrate and releases the AMC fragment. The AMC released fluoresces at 460 nm under excitation at 380 nm. The activity of the enzyme is therefore proportional to the quantity of fluorescence i.e. of free AMC fragment. The fluorescence (380/460 nm) is measured using a multi-well fluorimeter (Victor 2, Wallac).
Assay is carried out in 96-well microplates with transparent bottoms and black walls in which 10 μl per well of substance to be tested in DMSO 10%, 45 μl of reaction mixture containing the human calpain I at 2.2 U/ml (Calbiochem, ref: 208713), the Suc Leu Tyr-AMC substrate (Bachem, ref: I-1355) at 1.1 mM in a buffer (Tris-HCl 110 mM; NaCl 110 mM; EDTA 2.2 mM; EGTA 2.2 mM; mercaptoethanol 1.1 mM) are distributed. The reaction is initiated by adding 45 μl of CaCl2 22mM. To determine the background noise, control wells without calcium are added to the plate (10 μL DMSO 10%+45 μL of buffer with the enzyme and the susbtrate +45 μL H2O). In order to determine the total activity of the enzyme control wells containing no product are added to the plate (10 μL DMSO 10%+45 μL of buffer with the enzyme and the substrate +45 μL of CaCl2 22 mM ). Each concentration of the products (0.1 nM to 10 μM) is tested in duplicate. The plates are shaken and incubation takes place for one hour at 25° C. in darkness. The fluorescence is read at 380/460 nm using the Victor.

Structures are written as SMILES.

With `CC(C)C[C@@H](C=O)NC(=O)[C@H](CC(C)C)NC(=O)OCc1ccccc1` [EXAMPLE 1 B, benzyl (1S)-1-({[(1S)-1-formyl-3-methylbutyl]amino}carbonyl)-3-methylbutylcarbamate], the IC50 in experiment [1] was 1750 ± 340 nM; on human calpain I it was 6 nM.
